Assays:
[1] = tested on: UMUC3 cells; experiment: Cell proliferation assay (MTT), UMUC3; type: cell-based, human; details: UMUC3 stable subline, without androgen treatment, vs. control-siRNA
[2] = tested on: TCC-SUP cells; experiment: Cell proliferation assay (MTT), TCC-SUP; type: cell-based, human; details: TCC-SUP stable subline, without androgen treatment, vs. control-siRNA
[3] = tested on: TCC-SUP and UMUC3 stable sublines (control-siRNA, AR-siRNA); experiment: Tumor incidence (tumorigenicity) study of control-siRNA and AR-siRNA sublines in nude mice; type: in vivo, male athymic nude mouse; details: vs. control-siRNA cells with control treatment; treatment from tumor cell implantation; tumor positive at 40 mm3
Description: (§1) The reporter plasmids [mouse mammary tumor virus (MMTV)-luciferase (Luc) and (ARE)4-Luc (provided by Dr. Michael L. Lu at Harvard Medical School)] as well as a retrovirus vector pMSCV/U6 (Clontech)-AR-siRNA were described in previous studies (Miyamoto et al., Int. J. Cancer, 117:866-72 (2005) and Yeh et al., J. Exp. Med. 198:1899-908 (2003)). Using SuperFect reagent (Qiagen), stable cell lines expressing the AR-siRNA were established by transfecting pMSCV/U6-AR-siRNA into Phi-NX packaging retrovirus producer cells (developed by the Nolan Lab at Stanford University). The target cells (i.e., TCC-SUP, UMUC3, and 5637) were then cultured in the presence of the viral supernatant, and infected cells were selected with puromycin (Sigma).
Bladder cancer cell lines (TCC-SUP, UMUC3, and 5637) were harvested, washed twice with PBS, and resuspended in Matrigel (BD Bioscience) at a final concentration of 1×10^7 cells/mL. Cells (1×10^6 cells in 100 μl per site) were then injected subcutaneously into the right and left flanks of 6-week-old male athymic nude mouse. Treatment (castration or sham surgery, flutamide [0.5 mg/mouse] or placebo pellet injection, and the recently developed anti-AR molecule ASC-J9 (50 mg/Kg or DMSO injection) (Ohtsu et al., J. Med. Chem., 45:5037-42 (2002)) was initiated either (1) at the same time as tumor cell injection (for tumor incidence studies, n=8 mice in each group) or (2) when the sizes of all tumors reached 40 mm^3 (for tumor progression studies, n=12 tumors from 6 mice in each group). Hormonal pellets were replaced as required (every 90 days). Tumor weight was calculated by the following formula: tumor weight (mg)=tumor length (mm)×[tumor width (mm)]^2×0.5 (Geram et al., Cancer Chemother. Rep., 3:47-52 (1972)). Using calipers, each tumor was measured twice a week until either the tumor size reached 40 mm^3 (for tumor incidence study) (Chen et al., Nat. Med., 10:33-9 (2004)), or until the tumor exceeded 10% of the animal's body weight, at which time the mouse was killed (for tumor progression study).

[4] = tested on: AR; experiment: AR knockdown in stable transfectants (RT-PCR, immunoblot); type: cell-based, human; details: AR-siRNA-expressing TCC-SUP and UMUC3 cells vs. scrambled control-siRNA
Description: as §1
Total RNA from mouse bladder and xenograft tumor tissues and cultured cells was extracted by the acid guanidinium-phenol-chloroform method as previously described (Miyamoto et al., Cancer, 75:2565-70 (1995)) or by using Trizol reagent (Life Science). […] Using the iCycler (Bio-Rad) and the methods previously described by Miyoshi et al., Prostate, 56:280-6 (2003), real-time quantitative PCR analysis of AR, basic fibroblast growth factor (bFGF), vascular endothelial growth factor (VEGF), and matrix metalloproteinase-9 (MMP-9) was performed on the tissue samples from mouse xenograft tumors. […]

AR-siRNA: siRNA against AR expressed from retrovirus vector pMSCV/U6-AR-siRNA; knocks down the AR in mammalian cells (guide GGGCCCCTGGATGGATAGCTACCTCGAGGTAGCTATCCATCCAGGGGCC; listed as Homo sapiens)
reduction of cell proliferation by AR knockdown [1]: 15% | reduction of cell proliferation by AR knockdown [2]: 20% | latency of tumor formation [3]: substantially prolonged | levels of AR mRNA and protein [4]: substantially lower

Reference: patent publication US20090282496A1, “Androgen Receptor Related Methods for Treating Bladder Cancer” (University of Rochester Medical Center, priority 2008, published 2009)
